Entries after “also recorded” stand apart in the source; their conditions may differ.
Legend:
[1] = system: endogenous retinal stem cell populations; experiment: Endogenous retinal stem cell proliferation after intraocular MS-818, BrdU immunostaining; assay type: in vivo; details: rat; intraocular (vitreous cavity) 10 μg/20 μl, one time injection; after three days
[2] = system: endogenous neural stem cell populations in the brain; experiment: Endogenous stem cell proliferation in aged rat brain after MS-818 i.p., BrdU immunostaining; assay type: in vivo; details: 3 mg/kg/day i.p. for 5 days
Description: To investigate the effect of MS-818, a pyrimidine derivative, on stem cell population in vivo, MS-818 (3 mg/kg/day, i.p.) was injected for 5 days into aged (27-month old) male Fisher 344 rats. The same volume of saline was injected into control animals. Bromodeoxyuridine (BrdU) (100 mg/kg/day i.p.) was then injected for 3 days. Twenty-four hours after the last injection, the brains were removed and fixed for immunohistochemical detection of the proliferating cells by immunostaining for BrdU.

In the case of `CC1Nc2nc(N3CCCCC3)ncc2C1=O.O=C(O)/C=C\C(=O)O` (stereo not shown) [MS-818, 2-piperadino-6-methyl-5-oxo-5,6-dihydro(7H) pyrrolo[2,3-d]pyrimidine maleate], the “number of BrdU-positive cells in retina / retinal ciliary marginal zone” value [1] is reported as “dramatic increase; also recorded: clearly increased”, the “proliferation and migration of stem cells in the subventricular zone” value [2] is reported as “significant increase not only in the proliferation but also in the migration of stem cells” and the “number of BrdU positive cells in SVZ (immunohistochemistry)” value ([2]; vs control without MS-818) is reported as “increased”. The “number of BrdU positive cells in cerebral cortex (immunohistochemistry)” value ([2]; vs control without MS-818) was “significantly increased”.
